{
  "source": "patent US4504480A",
  "about": "“Pentacyclic compounds” (Beecham Group p.l.c., priority 1982, dated 1985)",
  "target": "T1, α2-adrenoceptors (Rattus norvegicus, UniProt P22909)",
  "T1 construct": "isolated rat-brain synaptic membrane fragments; from tissue; host or cells: rat brain, synaptic membrane fragments",
  "T1 sequence (P22909 1-465)": "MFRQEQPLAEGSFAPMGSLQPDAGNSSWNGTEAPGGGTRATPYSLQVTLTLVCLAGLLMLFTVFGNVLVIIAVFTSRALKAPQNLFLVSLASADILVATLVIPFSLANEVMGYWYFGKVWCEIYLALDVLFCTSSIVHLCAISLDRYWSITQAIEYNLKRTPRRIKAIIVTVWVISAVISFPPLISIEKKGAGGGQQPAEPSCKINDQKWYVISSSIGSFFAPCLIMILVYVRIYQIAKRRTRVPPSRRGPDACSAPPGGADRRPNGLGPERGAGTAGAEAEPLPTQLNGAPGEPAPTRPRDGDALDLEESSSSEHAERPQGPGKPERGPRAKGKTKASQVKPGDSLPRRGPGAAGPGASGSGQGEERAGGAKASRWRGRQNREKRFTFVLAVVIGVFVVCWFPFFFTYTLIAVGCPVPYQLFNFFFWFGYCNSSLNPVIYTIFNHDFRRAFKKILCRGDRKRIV",
  "assay": "inhibition of [3H]-clonidine binding to isolated rat-brain synaptic membrane fragments",
  "settings": "from IC50 by Cheng-Prusoff equation",
  "text": "Blockade of presynaptic α2 -adrenoceptors on noradrenergic neurones effects an increase in intrasynaptic noradrenaline, and thus in the central nervous system could be expected to have an antidepressant effect. [^3 H]-Clonidine binds to α2 -adrenoceptor sites and inhibition of this binding correlates with the blockade of α2 -adrenoceptors. In vitro inhibition by some of the present compounds of the binding of [^3 H]-clonidine to isolated rat-brain synaptic membrane fragments was therefore determined to provide an indication of antidepressant activity. This was carried out using standard biochemical binding study techniques, by the method of Maggi et al, Eur. J. Pham. 1980, 61, 91. IC50 values were obtained from log [dose] against % inhibition curves; Ki values were determined using the Cheng-Prusoff equation.",
  "data": [
    {"smiles": "CN1CCN2c3ccccc3Cc3cccc4c3[C@@H]2[C@H]1C4", "note": "(relative stereo) [Example I, trans-12-Methyl-1,10,11,12,12a,12b-hexahydro-5H-9b,12-diazabenzo[5,6]cyclohepta[1,2,3,4-def]fluorene]", "values": [
      {"measurement": "Ki", "value": 0.088, "unit": "µM"}
    ]},
    {"smiles": "CN1CCN2c3ccccc3Cc3cccc4c3[C@@H]2[C@H]1CC4", "note": "(relative stereo) [Example II, trans-13-methyl-1,2,6,11,12,13,13a,13b-octahydro-10b13-diazabenzo[gh]pleiadene]", "values": [
      {"measurement": "Ki", "value": 0.169, "unit": "µM"}
    ]}
  ]
}
